In ChEMBL document CHEMBL4680211, “Synthesis and structure-activity relationship study of water-soluble carbazole sulfonamide derivatives as new anticancer agents” (Eur J Med Chem, 2020):

Tests used:
MCF7 = assay: Antiproliferative activity against human MCF7 cells measured after 48 hrs by SRB assay; assay type: functional, cell-based; details: Homo sapiens, MCF7, 48 h
Bel-7402 = assay: Antiproliferative activity against human Bel-7402 cells measured after 48 hrs by SRB assay; assay type: functional, cell-based; details: Homo sapiens, Bel-7402, 48 h
HepG2 [1] = assay: Antiproliferative activity against human HepG2 cells measured after 48 hrs by SRB assay; assay type: functional, cell-based; details: Homo sapiens, HepG2, 48 h
HepG2 [2] = assay: Antitumor activity against human HepG2 cells xenografted in BALB/c nude mouse assessed as tumor growth inhibition at 50 mg/kg, iv qod for 14 to 29 days relative to control; assay type: functional; details: time 14-29 day, read-out: TGI
[3] = Elimination half life in Sprague-Dawley rat at 2.5 mg/kg, iv; assay type: ADME, organism-based; details: in vivo, read-out: beta t1/2 (converted)
[4] = AUC (0 to last) in Sprague-Dawley rat at 2.5 mg/kg, iv; assay type: ADME, organism-based; design: time 0 - last, route intravenous, dose 2.5 mg/kg; details: in vivo
[5] = Acute toxicity in ip dosed Kunming mouse measured for 7 days; assay type: organism-based; details: in vivo, time 7 day
[6] = Volume of distribution at steady state in Sprague-Dawley rat at 2.5 mg/kg, iv; assay type: ADME, organism-based; details: in vivo, read-out: Vdss
HepG2 [7] = assay: Antitumor activity against human HepG2 cells xenografted in BALB/c nude mouse assessed as tumor growth inhibition at 25 mg/kg, ip qod for 29 days by caliper method relative to control; assay type: functional; details: 696 h, time 29 day, read-out: TGI
[8] = MRT (0 to last) in Sprague-Dawley rat at 2.5 mg/kg, iv; assay type: ADME, organism-based; details: in vivo
[9] = Acute toxicity in Kunming mouse assessed as survival at 25 mg/kg, iv measured for 7 days relative to control; assay type: organism-based; details: in vivo, time 7 day
[10] = Acute toxicity in Kunming mouse assessed as survival at 50 mg/kg, iv measured for 7 days relative to control; assay type: organism-based; details: in vivo, time 7 day
HepG2 [11] = assay: Antitumor activity against human HepG2 cells xenografted in BALB/c nude mouse assessed as tumor growth inhibition at 10 mg/kg, iv qod for 14 to 29 days relative to control; assay type: functional; details: time 14-29 day, read-out: TGI
[12] = Toxicity in human HepG2 cells xenografted BALB/c nude mouse assessed as change in tumor weight at 10 mg/kg, iv qod for 14 to 29 days (reference value: 4.52 g); assay type: organism-based; details: in vivo, time 14-29 day
[13] = Acute toxicity in Kunming mouse assessed as survival at 100 mg/kg, iv measured for 7 days relative to control; assay type: organism-based; details: in vivo, time 7 day
[14] = Acute toxicity in iv dosed Kunming mouse measured for 7 days; assay type: organism-based; details: in vivo, time 7 day
[15] = Acute toxicity in Kunming mouse assessed as survival at 75 mg/kg, iv measured for 7 days relative to control; assay type: organism-based; details: in vivo, time 7 day
HepG2 [16] = assay: Antitumor activity against human HepG2 cells xenografted in BALB/c nude mouse assessed as tumor volume at 10 mg/kg, iv qod for 14 to 29 days measured on day 29 (reference value: 2,838.93 +/- 737.40); assay type: functional; details: time 14-29 day
HepG2 [17] = assay: Antitumor activity against human HepG2 cells xenografted in BALB/c nude mouse assessed as tumor volume at 10 mg/kg, iv qod for 14 to 29 days measured on day 1 (reference value: 154.04 +/- 3120); assay type: functional; details: time 14-29 day
[18] = Acute toxicity in Kunming mouse assessed as survival at 200 mg/kg, iv measured for 7 days relative to control; assay type: organism-based; details: in vivo, time 7 day
[19] = Acute toxicity in Kunming mouse assessed as survival at 80 mg/kg, iv measured for 7 days relative to control; assay type: organism-based; details: in vivo, time 7 day
[20] = Acute toxicity in Kunming mouse assessed as survival at 60 mg/kg, iv measured for 7 days relative to control; assay type: organism-based; details: in vivo, time 7 day
HepG2 [21] = assay: Antitumor activity against human HepG2 cells xenografted in BALB/c nude mouse assessed as tumor growth inhibition at 5 mg/kg, iv qod for 14 to 29 days relative to control; assay type: functional; details: time 14-29 day, read-out: TGI
[22] = Acute toxicity in Kunming mouse assessed as survival at 40 mg/kg, iv measured for 7 days relative to control; assay type: organism-based; details: in vivo, time 7 day
[23] = Toxicity in GFP-labelled human HepG2 cells xenografted BALB/c nude mouse assessed as change in animal weight at 10 mg/kg, iv qod for 29 days; assay type: organism-based; details: in vivo, 696 h, time 29 day
HepG2 [24] = assay: Antitumor activity against GFP-labelled human HepG2 cells xenografted in BALB/c nude mouse assessed as tumor growth inhibition at 10 mg/kg, iv qod for 29 days relative to control; assay type: functional; details: 696 h, time 29 day, read-out: TGI
[25] = Terminal half life in Sprague-Dawley rat assessed as N-(2,6-dimethoxypyridin-3-yl)-7-hydroxy-9-methyl-9H-carbazole-3-sulfonamide level at 2.5 mg/kg, iv; assay type: ADME, organism-based; details: in vivo
[26] = AUC (0 to last) in Sprague-Dawley rat assessed as N-(2,6-dimethoxypyridin-3-yl)-7-hydroxy-9-methyl-9H-carbazole-3-sulfonamide level at 2.5 mg/kg, iv; assay type: ADME, organism-based; design: route intravenous, time 0 - last, dose 2.5 mg/kg; details: in vivo
[27] = Cmax in Sprague-Dawley rat assessed as N-(2,6-dimethoxypyridin-3-yl)-7-hydroxy-9-methyl-9H-carbazole-3-sulfonamide level at 2.5 mg/kg, iv; assay type: ADME, organism-based; design: route intravenous, dose 2.5 mg/kg; details: in vivo
[28] = Tmax in Sprague-Dawley rat assessed as N-(2,6-dimethoxypyridin-3-yl)-7-hydroxy-9-methyl-9H-carbazole-3-sulfonamide level at 2.5 mg/kg, iv; assay type: ADME, organism-based; details: in vivo
[29] = MRT (0 to last) in Sprague-Dawley rat assessed as N-(2,6-dimethoxypyridin-3-yl)-7-hydroxy-9-methyl-9H-carbazole-3-sulfonamide level at 2.5 mg/kg, iv; assay type: ADME, organism-based; details: in vivo
HepG2 [30] = assay: Antitumor activity against human HepG2 cells xenografted in BALB/c nude mouse assessed as reduction in tumor volume at 100 mg/kg administered for 29 days by caliper method relative to control; assay type: functional; design: scale not given: the % may be the effect or the level left; details: time 29 day
HepG2 [31] = assay: Antitumor activity against human HepG2 cells xenografted in BALB/c nude mouse assessed as reduction in tumor volume at 50 mg/kg administered for 29 days by caliper method relative to control; assay type: functional; design: scale not given: the % may be the effect or the level left; details: time 29 day
[32] = Toxicity in human HepG2 cells xenografted BALB/c nude mouse assessed as change in tumor weight at 50 to 100 mg/kg for 29 days; assay type: organism-based; details: in vivo, 696 h, dose 50-100 mg/kg, time 29 day
[33] = Acute toxicity in po dosed Kunming mouse measured for 7 days; assay type: organism-based; details: in vivo, time 7 day
[34] = Toxicity in GFP-labelled human HepG2 cells xenografted BALB/c nude mouse assessed as change in animal weight at 10 mg/kg, iv administered once per week for 29 days; assay type: organism-based; details: in vivo, 696 h, time 29 day
HepG2 [35] = assay: Antitumor activity against GFP-labelled human HepG2 cells xenografted in BALB/c nude mouse assessed as tumor growth inhibition at 10 mg/kg, iv administered once per week for 29 days relative to control; assay type: functional; details: 696 h, time 29 day, read-out: TGI
[36] = Toxicity in human MDA-MB-231 cells xenografted BALB/c nude mouse assessed as effect on body weight at 60 mg/kg, ip biw for 14 to 29 days measured every two days during compound dosing; assay type: organism-based; details: in vivo, time 14-29 day
HepG2 [37] = assay: Antitumor activity against human HepG2 cells xenografted in BALB/c nude mouse assessed as tumor growth inhibition at 10 mg/kg, iv administered once per week for 29 days by caliper method relative to control; assay type: functional; design: scale not given: the % may be the effect or the level left; details: time 29 day
MDA-MB-231 = assay: Antitumor activity against human MDA-MB-231 cells xenografted in BALB/c nude mouse assessed as reduction in tumor burden at 60 mg/kg, ip biw for 14 to 29 days relative to control; assay type: functional; design: scale not given: the % may be the effect or the level left; details: time 14-29 day

| Compound | IC50 (MCF7) | IC50 (Bel-7402) | IC50 (HepG2 [1]) | inhibition in vivo at 10 mg/kg (HepG2 [11]) | Activity [12] | survival at 168 h [13] | LD50 at 168 h [14] | Activity (HepG2 [16]) | Activity (HepG2 [17]) | further results |
| --- | --- | --- | --- | --- | --- | --- | --- | --- | --- | --- |
| COc1ccc(/C=C\c2cc(OC)c(OC)c(OC)c2)cc1OP(=O)(O)O [FOSBRETABULIN DISODIUM] | 0.011 µM | 0.04 µM | 0.002 µM | – | – | – | – | – | – | inhibition in vivo at 50 mg/kg (HepG2 [2]): 45.8% |
| COc1ccc(NS(=O)(=O)c2ccc3c(c2)c2ccc(OP(=O)([O-])[O-])cc2n3C)c(OC)n1.[Na+].[Na+] | 0.016 µM | 0.06 µM | 0.019 µM | – | – | – | – | – | – | half-life [3]: 43.2 min; AUClast [4]: 18449 ng·h/mL; LD50 at 168 h [5]: 273 mg/kg; Vd [6]: 0.24 L/kg; inhibition in vivo at 25 mg/kg (HepG2 [7]): 71.7%; MRT last [8]: 10.2 min |
| COc1ccc(N(CCN(C)C)S(=O)(=O)c2ccc3c(c2)c2ccccc2n3C)c(OC)n1 | 5.33 µM | 5.32 µM | 1.46 µM | 52.8% | 0.87 g | 0% | 71.9 mg/kg | 1322.82 mm3 | 90.79 mm3 | survival at 168 h [9]: 100%; survival at 168 h [10]: 83.3%; survival at 168 h [15]: 66.7% |
| COc1ccc(N(CCN2CCC(N3CCCC3)CC2)S(=O)(=O)c2ccc3c(c2)c2ccccc2n3C)c(OC)n1 | 21 µM | 7.81 µM | 3.37 µM | 51.5% | 1.72 g | 16.7% | 70.7 mg/kg | 1237.34 mm3 | 85.64 mm3 | survival at 168 h [9]: 100%; survival at 168 h [10]: 83.3%; survival at 168 h [18]: 0% |
| COc1ccc(N(CCN2CCN(C)CC2)S(=O)(=O)c2ccc3c(c2)c2ccccc2n3C)c(OC)n1 | 15 µM | 6.06 µM | 4.13 µM | 48.3% | 1.44 g | 16.7% | 89.5 mg/kg | 914.19 mm3 | 92.29 mm3 | survival at 168 h [19]: 83.3%; survival at 168 h [20]: 100%; inhibition in vivo at 5 mg/kg (HepG2 [21]): 33.3%; survival at 168 h [22]: 100%; Activity [23]: Non-Toxic; inhibition in vivo at 10 mg/kg (HepG2 [24]): 60.2% |
| COc1ccc(NS(=O)(=O)c2ccc3c(c2)c2ccc(O)cc2n3C)c(OC)n1 | 0.014 µM | 0.056 µM | 0.012 µM | – | – | – | – | – | – | beta t1/2 [25]: 108 min; AUClast [26]: 15295 ng·h/mL; Cmax [27]: 22333 ng/mL; Tmax [28]: 5 min; MRTlast [29]: 76.2 min |
| COc1ccc(N(CCOP(=O)([O-])[O-])S(=O)(=O)c2ccc3c(c2)c2ccccc2n3C)c(OC)n1.[Na+].[Na+] | 1.08 µM | 1.97 µM | 1.12 µM | – | – | – | – | – | – | Activity (HepG2 [30]): 70.1%; Activity (HepG2 [31]): 54.5%; Activity [32]: Non-Toxic; LD50 at 168 h [33]: 273 mg/kg |
| CC(=O)O[C@H]1C(=O)[C@@]2(C)[C@H]([C@H](OC(=O)c3ccccc3)[C@]3(O)C[C@H](OC(=O)[C@H](O)[C@@H](NC(=O)c4ccccc4)c4ccccc4)C(C)=C1C3(C)C)[C@]1(OC(C)=O)CO[C@@H]1C[C@@H]2O [PACLITAXEL] | – | – | – | – | – | – | – | – | – | Activity [34]: Non-Toxic; inhibition in vivo at 10 mg/kg (HepG2 [35]): 99.4%; Activity [36]: Non-Toxic; Activity (HepG2 [37]): 59.6%; Activity (MDA-MB-231): 36% |
